Test results taken from ChEMBL document CHEMBL5523727, “Discovery of KT-413, a Targeted Protein Degrader of IRAK4 and IMiD Substrates Targeting MYD88 Mutant Diffuse Large B-Cell Lymphoma” (J Med Chem, 2024).
The source made the active and inactive calls. The rule behind the calls is not given here.

Tests used:
[1] = AUC in Non human primate at 2.1 mg/kg, po by LC-MS/MS analysis; assay type: ADME, organism-based; conditions: primates, in vivo
[2] = Volume of distribution at steady state in rat at 2 mg/kg, iv by LC-MS/MS analysis; assay type: ADME, organism-based; conditions: in vivo, read-out: Vdss
OCI-Ly10 [3] = assay: Antiproliferative activity against human OCI-Ly10 cells measured after 4 days by CellTiter-Glo Luminescent Cell Viability Assay; assay type: functional, cell-based; conditions: Homo sapiens, OCI-Ly10, 96 h
PBMC [4] = assay: Effect on IKZF3 expression in human PBMC cells at 100 nM measured after 24 hrs by TMT based quantitative proteomics analysis; assay type: functional, cell-based
PBMC [5] = assay: Downregulation of IRAK4 expression in human PBMC cells at 100 nM measured after 24 hrs by TMT based quantitative proteomics analysis; assay type: functional, cell-based
[6] = Volume of distribution at steady state in mouse at 2 mg/kg, iv by LC-MS/MS analysis; assay type: ADME, organism-based; conditions: in vivo, read-out: Vdss
OCI-Ly10 [7] = assay: Downregulation of […] expression in human OCI-Ly10 cells at 60 nM measured after 2 to 8 hrs by TMT based quantitative proteomics analysis; assay type: functional, cell-based; conditions: time 2-8 hrs
PBMC [8] = assay: Effect on WIZ expression in human PBMC cells at 100 nM measured after 24 hrs by TMT based quantitative proteomics analysis; assay type: functional, cell-based
[9] = Clearance in rat at 2 mg/kg, iv by LC-MS/MS analysis; assay type: ADME, organism-based; conditions: in vivo
[10] = biological target: T1, Protein cereblon/Zinc finger protein Aiolos (Homo sapiens, UniProt Q96SW2+Q9UKT9); assay: PROTAC activity at CRBN/Aiolos in human OCI-Ly10 cells assessed as maximum degradation at 41 nM measured within 2 hrs; assay type: cell-based
Target sequence in this assay (Q96SW2 whole entry, looked up): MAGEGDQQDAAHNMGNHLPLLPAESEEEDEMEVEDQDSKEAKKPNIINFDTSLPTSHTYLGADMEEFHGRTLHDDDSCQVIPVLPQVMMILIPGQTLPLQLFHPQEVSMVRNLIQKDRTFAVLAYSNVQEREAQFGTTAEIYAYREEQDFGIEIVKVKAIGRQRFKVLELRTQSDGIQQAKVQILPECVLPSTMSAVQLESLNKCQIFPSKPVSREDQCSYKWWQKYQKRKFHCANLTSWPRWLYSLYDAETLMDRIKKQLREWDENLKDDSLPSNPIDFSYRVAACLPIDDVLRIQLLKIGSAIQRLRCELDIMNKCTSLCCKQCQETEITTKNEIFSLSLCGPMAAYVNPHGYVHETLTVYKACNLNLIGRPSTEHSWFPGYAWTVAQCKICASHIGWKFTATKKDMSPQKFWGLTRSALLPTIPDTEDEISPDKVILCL
Target sequence in this assay (Q9UKT9 whole entry, looked up): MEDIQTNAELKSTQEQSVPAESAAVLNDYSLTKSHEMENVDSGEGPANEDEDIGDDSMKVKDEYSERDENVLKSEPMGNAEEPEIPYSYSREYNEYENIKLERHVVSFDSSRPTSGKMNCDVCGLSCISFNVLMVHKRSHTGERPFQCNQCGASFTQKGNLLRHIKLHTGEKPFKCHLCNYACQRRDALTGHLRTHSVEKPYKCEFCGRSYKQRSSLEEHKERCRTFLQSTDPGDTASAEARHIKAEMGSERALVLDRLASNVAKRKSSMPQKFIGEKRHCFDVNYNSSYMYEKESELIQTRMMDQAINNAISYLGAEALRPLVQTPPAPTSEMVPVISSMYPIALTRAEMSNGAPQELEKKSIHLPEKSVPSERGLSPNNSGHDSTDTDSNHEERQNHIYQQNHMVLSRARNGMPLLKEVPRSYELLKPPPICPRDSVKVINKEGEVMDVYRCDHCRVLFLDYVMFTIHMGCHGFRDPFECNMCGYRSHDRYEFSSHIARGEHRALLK

[11] = Metabolic stability in Non human primate liver microsomes assessed as intrinsic clearance; assay type: ADME, Microsome; conditions: primates, read-out: CLH
OCI-Ly10 [12] = assay: Downregulation of FGD2 expression in human OCI-Ly10 cells at 60 nM measured after 2 to 8 hrs by TMT based quantitative proteomics analysis; assay type: functional, cell-based; conditions: time 2-8 hrs
[13] = Passive permeability of the compound in wild type MDCK cells across apical to basolateral side at 1 uM measured for 120 mins by LC-MS/MS analysis; assay type: ADME, cell-based, Canis lupus familiaris; conditions: dog, read-out: permeability
PBMC [14] = assay: Effect on ZFP91 expression in human PBMC cells at 100 nM measured after 24 hrs by TMT based quantitative proteomics analysis; assay type: functional, cell-based
[15] = Metabolic stability in human hepatocyte assessed as intrinsic clearance measured per million cells; assay type: ADME, cell-based; conditions: hepatocytes, read-out: CLH
[16] = biological target: T1, Protein cereblon/Zinc finger protein Aiolos; assay: PROTAC activity at CRBN/Aiolos in human OCI-Ly10 cells assessed as induction of Aiolos degradation measured after 24 hrs by MSD assay; assay type: cell-based
Target sequence in this assay (Q96SW2 whole entry): as the sequence (Q96SW2 whole entry, looked up) above
Target sequence in this assay (Q9UKT9 whole entry): as the sequence (Q9UKT9 whole entry, looked up) above

PBMC [17] = assay: Effect on GSPT1 expression in human PBMC at 100 nM measured after 24 hrs by TMT based quantitative proteomics analysis; assay type: functional, cell-based
[18] = Metabolic stability in Non human primate hepatocyte assessed as intrinsic clearance measured per million cells; assay type: ADME, cell-based; conditions: primates, hepatocytes; read-out: CLH
OCI-Ly10 [19] = assay: Downregulation of LPXN expression in human OCI-Ly10 cells at 60 nM measured after 2 to 8 hrs by TMT based quantitative proteomics analysis; assay type: functional, cell-based; conditions: time 2-8 hrs
[20] = Clearance in Non human primate at 0.2 mg/kg, iv by LC-MS/MS analysis; assay type: ADME, organism-based; conditions: primates, in vivo
[21] = Half life in mouse at 2 mg/kg, iv by LC-MS/MS analysis; assay type: ADME, organism-based; conditions: in vivo
[22] = Volume of distribution at steady state in Non human primate at 0.2 mg/kg, iv by LC-MS/MS analysis; assay type: ADME, organism-based; conditions: primates, in vivo, read-out: Vdss
[23] = Half life in Non human primate at 0.2 mg/kg, iv by LC-MS/MS analysis; assay type: ADME, organism-based; conditions: primates, in vivo
[24] = Metabolic stability in dog liver microsomes assessed as intrinsic clearance; assay type: ADME, Canis lupus familiaris, Microsome; conditions: read-out: CLH
OCI-Ly10 [25] = assay: […] of […] expression in human OCI-Ly10 cells at 60 nM measured after 2 to 8 hrs by TMT based quantitative proteomics analysis; assay type: functional, cell-based; conditions: time 2-8 hrs
[26] = Oral bioavailability in rat at 10 mg/kg by LC-MS/MS analysis; assay type: ADME, organism-based; conditions: in vivo
[27] = Half life in dog at 0.2 mg/kg, iv by LC-MS/MS analysis; assay type: ADME, organism-based, Canis lupus familiaris; conditions: in vivo
PBMC [28] = assay: Effect on ZFP276 expression in human PBMC cells at 100 nM measured after 24 hrs by TMT based quantitative proteomics analysis; assay type: functional, cell-based
[29] = Volume of distribution at steady state in dog at 0.2 mg/kg, iv by LC-MS/MS analysis; assay type: ADME, organism-based, Canis lupus familiaris; conditions: in vivo, read-out: Vdss
[30] = AUC in mouse at 10 mg/kg, po by LC-MS/MS analysis; assay type: ADME, organism-based; conditions: in vivo
[31] = biological target: T2, Protein cereblon/Interleukin-1 receptor-associated kinase 4 (Homo sapiens, UniProt Q9NWZ3+Q96SW2); assay: PROTAC activity at CRBN/IRAK4 in human OCI-Ly10 cells assessed as maximum degradation at 41 nM measured after 24 hrs; assay type: cell-based
Target sequence in this assay (Q96SW2 whole entry, looked up): as the sequence (Q96SW2 whole entry, looked up) above
Target sequence in this assay (Q9NWZ3 whole entry, looked up): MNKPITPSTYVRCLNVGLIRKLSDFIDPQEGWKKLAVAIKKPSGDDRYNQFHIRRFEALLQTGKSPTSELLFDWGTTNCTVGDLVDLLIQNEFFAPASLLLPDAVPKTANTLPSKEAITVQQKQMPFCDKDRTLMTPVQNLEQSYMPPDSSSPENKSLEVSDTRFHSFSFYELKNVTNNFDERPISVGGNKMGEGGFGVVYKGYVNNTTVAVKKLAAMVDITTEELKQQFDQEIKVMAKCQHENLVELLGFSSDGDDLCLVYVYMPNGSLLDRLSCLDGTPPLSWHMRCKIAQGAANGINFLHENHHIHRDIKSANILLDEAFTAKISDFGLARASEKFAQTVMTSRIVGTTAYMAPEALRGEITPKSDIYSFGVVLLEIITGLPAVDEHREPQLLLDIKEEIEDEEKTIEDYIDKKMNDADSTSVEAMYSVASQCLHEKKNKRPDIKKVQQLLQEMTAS

[32] = AUC in dog at 2.1 mg/kg, po by LC-MS/MS analysis; assay type: ADME, organism-based, Canis lupus familiaris; conditions: in vivo
[33] = Metabolic stability in dog hepatocyte assessed as intrinsic clearance measured per million cells; assay type: ADME, cell-based, Canis lupus familiaris; conditions: hepatocytes, read-out: CLH
[34] = biological target: T2, Protein cereblon/Interleukin-1 receptor-associated kinase 4; assay: PROTAC activity at CRBN/IRAK4 in human OCI-Ly10 cells assessed as induction of IRAK4 degradation measured after 24 hrs by MSD assay; assay type: cell-based
Target sequence in this assay (Q9NWZ3 whole entry): as the sequence (Q9NWZ3 whole entry, looked up) above
Target sequence in this assay (Q96SW2 whole entry): as the sequence (Q96SW2 whole entry, looked up) above

OCI-Ly10 [35] = assay: Effect on GSPT1 expression in human OCI-Ly10 at 60 nM measured after 2 to 8 hrs by TMT based quantitative proteomics analysis; assay type: functional, cell-based; conditions: time 2-8 hrs
PBMC [36] = assay: Effect on IKZF1 expression in human PBMC cells at 100 nM measured after 24 hrs by TMT based quantitative proteomics analysis; assay type: functional, cell-based
[37] = Metabolic stability in mouse liver microsomes assessed as intrinsic clearance; assay type: ADME, Microsome; conditions: read-out: CLH
[38] = Metabolic stability in rat hepatocyte assessed as intrinsic clearance measured per million cells; assay type: ADME, cell-based; conditions: hepatocytes, read-out: CLH
OCI-Ly10 [39] = assay: Antitumor activity against human OCI-LY10 cells xenografted in CB-17.SCID mouse model assessed as tumor growth regression at 10 to 30 mg/kg, po QD dosed measured after 38 days relative to control; assay type: functional; conditions: dose 10-30 mg/kg, time 38 day
[40] = Clearance in mouse at 2 mg/kg, iv by LC-MS/MS analysis; assay type: ADME, organism-based; conditions: in vivo
[41] = Half life in rat at 2 mg/kg, iv by LC-MS/MS analysis; assay type: ADME, organism-based; conditions: in vivo
[42] = AUC in rat at 10 mg/kg, po by LC-MS/MS analysis; assay type: ADME, organism-based; conditions: in vivo, read-out: AUC
OCI-Ly10 [43] = assay: Antitumor activity against human OCI-LY10 cells xenografted in CB-17.SCID mouse model assessed as tumor growth regression at 3 mg/kg, po QD dosed measured after 38 days; assay type: functional, organism-based; conditions: time 38.0 day
OCI-Ly10 [44] = assay: […] of IKZF3 expression in human OCI-Ly10 cells at 60 nM measured after 2 to 8 hrs by TMT based quantitative proteomics analysis; assay type: functional, cell-based; conditions: time 2-8 hrs
Cereblon/Ikaros [45] = biological target: T3, Cereblon/Ikaros (Homo sapiens, UniProt Q96SW2+Q13422); assay: PROTAC activity at CRBN/Ikaros in human OCI-Ly10 cells assessed as maximum degradation at 41 nM measured within 2 hrs; assay type: cell-based
[46] = Oral bioavailability in Non human primate at 2.1 mg/kg by LC-MS/MS analysis; assay type: ADME, organism-based; conditions: primates, in vivo
[47] = Oral bioavailability in mouse at 10 mg/kg by LC-MS/MS analysis; assay type: ADME, organism-based; conditions: in vivo
OCI-Ly10 [48] = assay: Antitumor activity in human patient derived OCI-LY10 cells xenografted in NPG mouse bearing MYD88-mutated DLBCL tumor containing a CD79 co-mutation model assessed as tumor growth regression at 20 mg/kg, po QD dosed measured after 3 to 5 days relative to control; assay type: functional; conditions: time 3-5 day
[49] = Oral bioavailability in dog at 2.1 mg/kg by LC-MS/MS analysis; assay type: ADME, organism-based, Canis lupus familiaris; conditions: in vivo
Cereblon/Ikaros [50] = biological target: T3, Cereblon/Ikaros; assay: PROTAC activity at CRBN/Ikaros in human OCI-Ly10 cells assessed as induction of Ikaros degradation measured after 24 hrs by MSD assay; assay type: cell-based
[51] = Clearance in dog at 0.2 mg/kg, iv by LC-MS/MS analysis; assay type: ADME, organism-based, Canis lupus familiaris; conditions: in vivo
PBMC [52] = assay: Downregulation of FGD2 expression in human PBMC cells at 100 nM measured after 24 hrs by TMT based quantitative proteomics analysis; assay type: functional, cell-based
PBMC [53] = assay: Downregulation of LPXN expression in human PBMC cells at 100 nM measured after 24 hrs by TMT based quantitative proteomics analysis; assay type: functional, cell-based
[54] = Metabolic stability in rat liver microsomes assessed as intrinsic clearance at 1 uM measured upto 60 mins in presence of NADPH by UPLC/MS-MS analysis; assay type: ADME, Microsome; conditions: read-out: CLH
[55] = biological target: Protein cereblon/Interleukin-1 receptor-associated kinase 4 (Homo sapiens, UniProt Q96SW2+Q9NWZ3); assay: Binding affinity to CRBN/IRAK4 […] assessed as dissociation constant by DiscoverX Kd Elect assay
[56] = biological target: T2, Protein cereblon/Interleukin-1 receptor-associated kinase 4; assay: PROTAC activity at CRBN/IRAK4 in human OCI-Ly10 cells assessed as induction of IRAK4 degradation measured after 24 hrs by MSD assay relative to control; assay type: cell-based
Target sequence in this assay (Q96SW2 whole entry, looked up): as above
Target sequence in this assay (Q9NWZ3 whole entry, looked up): as the sequence (Q9NWZ3 whole entry, looked up) above

[57] = Metabolic stability in human liver microsomes assessed as intrinsic clearance at 1 uM measured upto 60 mins in presence of NADPH by UPLC/MS-MS analysis; assay type: ADME, Microsome; conditions: read-out: CLH

T3 sequence (Q96SW2 whole entry): as the sequence (Q96SW2 whole entry, looked up) above
T3 sequence (Q13422 whole entry): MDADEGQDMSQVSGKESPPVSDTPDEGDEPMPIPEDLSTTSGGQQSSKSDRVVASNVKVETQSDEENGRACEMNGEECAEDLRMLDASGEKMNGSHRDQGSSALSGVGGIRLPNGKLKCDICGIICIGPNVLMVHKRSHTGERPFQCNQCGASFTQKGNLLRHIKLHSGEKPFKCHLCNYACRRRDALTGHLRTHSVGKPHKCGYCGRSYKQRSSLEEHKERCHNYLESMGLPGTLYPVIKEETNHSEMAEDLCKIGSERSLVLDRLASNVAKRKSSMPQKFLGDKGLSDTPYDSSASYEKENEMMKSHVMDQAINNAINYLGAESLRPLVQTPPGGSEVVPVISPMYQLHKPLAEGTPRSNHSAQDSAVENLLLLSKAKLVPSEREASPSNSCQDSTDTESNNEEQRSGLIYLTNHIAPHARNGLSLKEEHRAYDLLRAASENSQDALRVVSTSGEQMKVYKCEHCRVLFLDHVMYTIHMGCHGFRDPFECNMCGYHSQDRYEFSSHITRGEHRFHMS
Sequence of Protein cereblon/Interleukin-1 receptor-associated kinase 4 (Homo sapiens, UniProt Q96SW2+Q9NWZ3) (Q9NWZ3 whole entry): as the sequence (Q9NWZ3 whole entry, looked up) above
Sequence of Protein cereblon/Interleukin-1 receptor-associated kinase 4 (Homo sapiens, UniProt Q96SW2+Q9NWZ3) (Q96SW2 whole entry): as the sequence (Q96SW2 whole entry, looked up) above

Compound: CC(C)(O)c1cc2nc([C@H]3CC[C@H](CN4CC5(CC(CCNc6cccc7c6C(=O)N(C6CCC(=O)NC6=O)C7=O)C5)C4)CC3)sc2cc1NC(=O)c1cccc(C(F)(F)F)n1 (stereo partly specified) [ZOMIRADOMIDE]
- AUC [1]: 3.6 µM·h
- Vd [2]: 15 L/kg
- IC50 (OCI-Ly10 [3]): 11 nM
- Activity (PBMC [4]): Active
- Activity (PBMC [5]): Active
- Vd [6]: 7.5 L/kg
- Activity (OCI-Ly10 [7]): Active
- Activity (PBMC [8]): Active
- clearance [9]: 9.1 mL/min/kg
- Activity [10]: Active
- microsomal CLint [11]: 8.6 µL/min/mg
- Activity (OCI-Ly10 [12]): Active
- Papp A→B at 2 h, 1 µM [13]: 1.3 ×10⁻⁶ cm/s
- Activity (PBMC [14]): Active
- hepatocyte CLint [15]: 3.5 µL/min/1e6 cells
- DC50 [16]: 1 nM
- Activity (PBMC [17]): inactive
- hepatocyte CLint [18]: 2.7 µL/min/1e6 cells
- Activity (OCI-Ly10 [19]): Active
- clearance [20]: 4.5 mL/min/kg
- half-life [21]: 8.6 h
- Vd [22]: 5.8 L/kg
- half-life [23]: 16.4 h
- microsomal CLint [24]: 4.2 µL/min/mg
- Activity (OCI-Ly10 [25]): Active
- bioavailability [26]: 15%
- half-life [27]: 28 h
- Activity (PBMC [28]): Active
- Vd [29]: 29 L/kg
- AUC [30]: 2.8 µM·h
- Activity [31]: Active
- AUC [32]: 0.46 µM·h
- hepatocyte CLint [33]: 2.3 µL/min/1e6 cells
- DC50 [34]: 6 nM
- Activity (OCI-Ly10 [35]): inactive
- Activity (PBMC [36]): Active
- microsomal CLint [37]: 4 µL/min/mg
- hepatocyte CLint [38]: 0.8 µL/min/1e6 cells
- Activity (OCI-Ly10 [39]): 100%
- clearance [40]: 11 mL/min/kg
- half-life [41]: 17 h
- AUC [42]: 2.7 µM·h
- Activity (OCI-Ly10 [43]): Active
- Activity (OCI-Ly10 [44]): Active
- Activity (Cereblon/Ikaros [45]): Active
- bioavailability [46]: 42%
- bioavailability [47]: 19%
- Activity (OCI-Ly10 [48]): 100%
- bioavailability [49]: 21%
- DC50 (Cereblon/Ikaros [50]): 1 nM
- clearance [51]: 14 mL/min/kg
- Activity (PBMC [52]): Active
- Activity (PBMC [53]): Active

Compound: CN(CCCOc1cccc2c1CN(C1CCC(=O)NC1=O)C2=O)C[C@H]1CC[C@H](n2cc3cc(NC(=O)c4cccc(C(F)(F)F)n4)c(C(C)(C)O)cc3n2)CC1 (stereo partly specified)
- IC50 (OCI-Ly10 [3]): 235 nM
- microsomal CLint at 1 µM [54]: 44 µL/min/mg
- Papp A→B at 2 h, 1 µM [13]: 4.8 ×10⁻⁶ cm/s
- Kd [55]: 0.22 nM
- Emax [56]: 80%
- DC50 [34]: 5 nM
- microsomal CLint at 1 µM [57]: 19 µL/min/mg
- DC50 (Cereblon/Ikaros [50]): > 500 nM
